Consider 31 compounds from paper PMC6015499 (Journal of medicinal chemistry, 2017).

The data set in a line: PAMPA permeability. The data set is classed as in vitro ADME.
As to `Cc1ccc(-c2nc(CN3CCC(C(=O)NCCCN4C[C@H](C)C[C@H](C)C4)CC3)c(C)o2)cc1` [7u, N-(3-(cis-3,5-Dimethylpiperidin-1-yl)propyl)-1-((5-methyl-2-(ptolyl)oxazol-4-yl)methyl)piperidine-4-carboxamide], the PAMPA permeability was 274.3 1×10^−6 cm/s.

As for `Cc1oc(-c2c(C)c(C)c(C)c(C)c2C)nc1CN1CCC(C(=O)NCCCN2C[C@H](C)C[C@H](C)C2)CC1` [7cc, N-(3-(cis-3,5-Dimethylpiperidin-1-yl)propyl)-1-((2-(2,3,4,5,6-pentamethylphenyl)-5-methyloxazol-4-yl)methyl)piperidine-4-carboxamide], the PAMPA permeability is on record as 455.2 1×10^−6 cm/s.

For `CCc1ccccc1-c1nc(CN2CCC(C(=O)NCCCN3C[C@H](C)C[C@H](C)C3)CC2)c(C)o1` [7v, N-(3-(cis-3,5-Dimethylpiperidin-1-yl)propyl)-1-((2-(2-ethylphenyl)-5-methyloxazol-4-yl)methyl)piperidine-4-carboxamide], the PAMPA permeability is 106.1 1×10^−6 cm/s.

In the case of `Cc1cccc(-c2nc(CN3CCC(C(=O)NCCCN4C[C@H](C)C[C@H](C)C4)CC3)c(C)o2)c1` [7t, N-(3-(cis-3,5-Dimethylpiperidin-1-yl)propyl)-1-((5-methyl-2-(mtolyl)oxazol-4-yl)methyl)piperidine-4-carboxamide], the PAMPA permeability is listed as 279.1 1×10^−6 cm/s.

With `Cc1cc(C)cc(-c2nc(CN3CCC(C(=O)NCCCN4C[C@H](C)C[C@H](C)C4)CC3)c(C)o2)c1` [7z, N-(3-(cis-3,5-Dimethylpiperidin-1-yl)propyl)-1-((2-(3,5-dimethylphenyl)-5-methyloxazol-4-yl)methyl)piperidine-4-carboxamide], the PAMPA permeability was 864 1×10^−6 cm/s.

For `Cc1oc(-c2ccc(Cl)cc2)nc1CN1CCC(C(=O)NCCCN2C[C@H](C)C[C@H](C)C2)CC1` [7ff, N-(3-(cis-3,5-Dimethylpiperidin-1-yl)propyl)-1-((2-(4-chlorophenyl)-5-methyloxazol-4-yl)methyl)piperidine-4-carboxamide], the PAMPA permeability is listed as >635.0 1×10^−6 cm/s.

For `Cc1ccccc1-c1nc(CN2CCC(C(=O)NCCCN3CC(C)(C)CC(C)(C)C3)CC2)c(C)o1` [7d, 1-((5-Methyl-2-(o-tolyl)oxazol-4-yl)methyl)-N-(3-(cis-3,3,5,5-tetramethylpiperidin-1-yl)propyl)piperidine-4-carboxamide], the PAMPA permeability was >1397 1×10^−6 cm/s.

On to `Cc1ccccc1-c1nc(CN2CCC(C(=O)NCCCN3C[C@H](C)C[C@@H](C)C3)CC2)c(C)o1` (racemic) [7b, (±)-N-(3-(trans-3,5-Dimethylpiperidin-1-yl)propyl)-1-((5-methyl-2-(o-tolyl)oxazol-4-yl)methyl)piperidine-4-carboxamide], for which the PAMPA permeability was 553.7 1×10^−6 cm/s.

For the compound `Cc1ccc2ccccc2c1-c1nc(CN2CCC(C(=O)NCCCN3C[C@H](C)C[C@H](C)C3)CC2)c(C)o1` [7bbb, N-(3-(cis-3,5-Dimethylpiperidin-1-yl)propyl)-1-((5-methyl-2-(2-methylnaphthalen-1-yl)oxazol-4-yl)methyl)piperidine-4-carboxamide], the PAMPA permeability is 547.1 1×10^−6 cm/s.

For `Cc1ccc(-c2nc(CN3CCC(C(=O)NCCCN4C[C@H](C)C[C@H](C)C4)CC3)c(C)o2)cc1C` [7x, N-(3-(cis-3,5-Dimethylpiperidin-1-yl)propyl)-1-((2-(3,4-dimethylphenyl)-5-methyloxazol-4-yl)methyl)piperidine-4-carboxamide], the PAMPA permeability was 219.4 1×10^−6 cm/s.

Take `Cc1oc(-c2c(F)cccc2F)nc1CN1CCC(C(=O)NCCCN2C[C@H](C)C[C@H](C)C2)CC1` [7jj, N-(3-(cis-3,5-Dimethylpiperidin-1-yl)propyl)-1-((2-(2,6-difluorophenyl)-5-methyloxazol-4-yl)methyl)piperidine-4-carboxamide]: the PAMPA permeability is 82.4 1×10^−6 cm/s.

As to `CC[C@@H]1C[C@H](CC)CN(CCCNC(=O)C2CCN(Cc3nc(-c4ccccc4C)oc3C)CC2)C1` [7c, N-(3-(cis-3,5-Diethylpiperidin-1-yl)propyl)-1-((5-methyl-2-(otolyl)oxazol-4-yl)methyl)piperidine-4-carboxamide], the PAMPA permeability is reported as 1267 1×10^−6 cm/s.

As to `Cc1oc(-c2cccc(Cl)c2)nc1CN1CCC(C(=O)NCCCN2C[C@H](C)C[C@H](C)C2)CC1` [7ee, N-(3-(cis-3,5-Dimethylpiperidin-1-yl)propyl)-1-((2-(3-chlorophenyl)-5-methyloxazol-4-yl)methyl)piperidine-4-carboxamide], the PAMPA permeability is 615.1 1×10^−6 cm/s.

As for `Cc1ccccc1-c1nc(CN2CCC(C(=O)NCCCN3CCC(C)(C)CC3)CC2)c(C)o1` [7f, N-(3-(4,4-Dimethylpiperidin-1-yl)propyl)-1-((5-methyl-2-(o-tolyl)-oxazol-4-yl)methyl)piperidine-4-carboxamide], the PAMPA permeability is listed as 241.4 1×10^−6 cm/s.

`Cc1cc(-c2nc(CN3CCC(C(=O)NCCCN4C[C@H](C)C[C@H](C)C4)CC3)co2)ccc1F` [18a, N-(3-(cis-3,5-Dimethylpiperidin-1-yl)propyl)-1-((2-(4-fluoro-3-methylphenyl)oxazol-4-yl)methyl)piperidine-4-carboxamide]: the PAMPA permeability is 215.4 1×10^−6 cm/s.

As for `Cc1cccc(Cl)c1-c1nc(CN2CCC(C(=O)NCCCN3CCCC(C)C3)CC2)c(C)o1` (racemic) [7oo, (±)-1-((2-(2-Chloro-6-methylphenyl)-5-methyloxazol-4-yl)-methyl)-N-(3-(3-methylpiperidin-1-yl)propyl)piperidine-4-carboxamide], the PAMPA permeability is recorded as 650.6 1×10^−6 cm/s.

As to `CCCN(CCC)CCNC(=O)C1CCN(Cc2nc(-c3ccccc3C)oc2C)CC1` [7p, N-(2-(Dipropylamino)ethyl)-1-((5-methyl-2-(o-tolyl)oxazol-4-yl)-methyl)piperidine-4-carboxamide], the PAMPA permeability is 913.1 1×10^−6 cm/s.

In the case of `COc1cccc(Br)c1-c1nc(CN2CCC(C(=O)NCCCN3C[C@H](C)C[C@H](C)C3)CC2)c(C)o1` [7tt, N-(3-(cis-3,5-Dimethylpiperidin-1-yl)propyl)-1-((2-(2-bromo-6-methoxyphenyl)-5-methyloxazol-4-yl)methyl)piperidine-4-carboxamide], the PAMPA permeability was 245.3 1×10^−6 cm/s.

On to `COc1cccc(Cl)c1-c1nc(CN2CCC(C(=O)NCCCN3C[C@H](C)C[C@H](C)C3)CC2)c(C)o1` [7uu, N-(3-(cis-3,5-Dimethylpiperidin-1-yl)propyl)-1-((2-(2-chloro-6-methoxyphenyl)-5-methyloxazol-4-yl)methyl)piperidine-4-carboxamide], for which the PAMPA permeability was 51.0 1×10^−6 cm/s.

As to `Cc1cc(-c2nc(CN3CCC(C(=O)NCCCN4CCC(C(C)C)CC4)CC3)co2)ccc1F` [18b, 1-((2-(4-Fluoro-3-methylphenyl)oxazol-4-yl)methyl)-N-(3-(4-isopropylpiperidin-1-yl)propyl)piperidine-4-carboxamide], the PAMPA permeability is reported as 276.4 1×10^−6 cm/s.

`Cc1ccccc1-c1nc(CN2CCC(C(=O)NCCCN3CCCCC3)CC2)c(C)o1` [7h, N-(3-(Piperidin-1-yl)propyl)-1-((5-methyl-2-(o-tolyl)oxazol-4-yl)-methyl)piperidine-4-carboxamide]: the PAMPA permeability is on record as 34.5 1×10^−6 cm/s.

On to `CCN(CC)CCCCNC(=O)C1CCN(Cc2nc(-c3ccc(OC)c(OC)c3)oc2C)CC1` [7zz, N-(4-(Diethylamino)butyl)-1-((2-(3,4-dimethoxyphenyl)-5-methyloxazol-4-yl)methyl)piperidine-4-carboxamide], for which the PAMPA permeability was 10.4 1×10^−6 cm/s.

With `Cc1ccccc1-c1nc(CN2CCC(C(=O)NCCCN3CCC(C)CC3)CC2)c(C)o1` [7g, N-(3-(4-Methylpiperidin-1-yl)propyl)-1-((5-methyl-2-(o-tolyl)-oxazol-4-yl)methyl)piperidine-4-carboxamide], the PAMPA permeability is given as 424.7 1×10^−6 cm/s.

Take `Cc1oc(-c2c(Br)cccc2Br)nc1CN1CCC(C(=O)NCCCN2C[C@H](C)C[C@H](C)C2)CC1` [7ll, N-(3-(cis-3,5-Dimethylpiperidin-1-yl)propyl)-1-((2-(2,6-dibromophenyl)-5-methyloxazol-4-yl)methyl)piperidine-4-carboxamide]: the PAMPA permeability is recorded as <1.0 1×10^−6 cm/s.

With `Cc1ccccc1-c1nc(CN2CCC(C(=O)NCCN3C[C@H](C)C[C@H](C)C3)CC2)c(C)o1` [7n, N-(3-(cis-3,5-Dimethylpiperidin-1-yl)ethyl)-1-((5-methyl-2-(otolyl)oxazol-4-yl)methyl)piperidine-4-carboxamide], the PAMPA permeability is 712.4 1×10^−6 cm/s.

`Cc1ccccc1-c1nc(CN2CCC(C(=O)NCCCN3CCOCC3)CC2)c(C)o1` [7q]: the PAMPA permeability was 432.4 1×10^−6 cm/s.

`Cc1ccccc1-c1nc(CN2CCC(C(=O)NCCCN3CCCC(CC(C)C)C3)CC2)c(C)o1` (racemic) [7l, (±)-N-(3-(3-Isobutylpiperidin-1-yl)propyl)-1-((5-methyl-2-(otolyl)oxazol-4-yl)methyl)piperidine-4-carboxamide]: the PAMPA permeability is recorded as 3 1×10^−6 cm/s.

As for `Cc1cccc(F)c1-c1nc(CN2CCC(C(=O)NCCCN3C[C@H](C)C[C@H](C)C3)CC2)c(C)o1` [7ss, N-(3-(cis-3,5-Dimethylpiperidin-1-yl)propyl)-1-((2-(2-fluoro-6-methylphenyl)-5-methyloxazol-4-yl)methyl)piperidine-4-carboxamide], the PAMPA permeability was 233.8 1×10^−6 cm/s.

Take `Cc1ccccc1-c1nc(CN2CCC(C(=O)NCCCN3CCC(C(C)C)CC3)CC2)c(C)o1` [7e, N-(3-(4-Isopropylpiperidin-1-yl)propyl)-1-((5-methyl-2-(o-tolyl)-oxazol-4-yl)methyl)piperidine-4-carboxamide]: the PAMPA permeability is 395.6 1×10^−6 cm/s.

For `Cc1ccccc1-c1nc(CN2CCC(C(=O)NCCCN3CC4CCCC(C4)C3)CC2)c(C)o1` [7m, N-(3-(3-Azabicyclo[3.3.1]nonan-3-yl)propyl)-1-((5-methyl-2-(otolyl)oxazol-4-yl)methyl)piperidine-4-carboxamide], the PAMPA permeability is recorded as 330.9 1×10^−6 cm/s.

For `COc1ccc(-c2nc(CN3CCC(C(=O)NCCCN4C[C@H](C)C[C@H](C)C4)CC3)c(C)o2)cc1OC` [7yy], the PAMPA permeability is 81.9 1×10^−6 cm/s.
